Assay results as given in US9962402B2, “Healing composition for topical application” (BIOPASS S.A., priority 2011, dated 2018).
Entries after “also recorded” stand apart in the source; their conditions may differ.

System: wound healing
Assay: Effect on wound healing (discovered in the context of the invention, no method given)
Type: in vivo
Settings: present in a gel

Structure (SMILES): CCOCCOCCO [ethoxydiglycol]
- effect on wound healing: significantly slows wound healing; also recorded: significantly delays wound healing
